Reference: US8524766B2, “Modulators of dopamine neurotransmission” (NSAB, Filial af Neurosearch Sweden AB, Sverige, priority 2008, dated 2013)

Tests used:
[1] = test system: DOPAC (3,4-dihydroxyphenylacetic acid) in the rat striatum; test: Increase of DOPAC in the rat striatum after systemic administration (in vivo neurochemistry); conditions: estimated ED50 on increase of DOPAC in rat striatum, systemic administration (s.c.), curve fitting; for ED50: sc
Text: After the behavioural activity sessions, the rats are decapitated and their brains rapidly taken out and put on an ice-cold petri-dish. The limbic forebrain, the striatum, the frontal cortex and the remaining hemispheral parts of each rat are dissected and frozen. Each brain part is subsequently analyzed with respect to its content of monoamines and their metabolites.
The monoamine transmitter substances (NA (noradrenaline), DA (dopamine), 5-HT (serotonin)) as well as their amine (NM (normethanephrine), 3-MT (3-methoxytyramine)) and acid (DOPAC (3,4-dihydroxyphenylacetic acid), 5-HIAA (5-hydroxyindoleacetic acid), HVA (homovanillic acid)) metabolites are quantified in brain tissue homogenates by HPLC separations and electrochemical detection.
The analytical method is based on two chromatographic separations dedicated for amines or acids. Two chromatographic systems share a common auto injector with a 10-port valve and two sample loops for simultaneous injection on the two systems. Both systems are equipped with a reverse phase column (Luna C18(2), dp 3 μm, 50*2 mm i.d., Phenomenex) and electrochemical detection is accomplished at two potentials on glassy carbon electrodes (MF-1000, Bioanalytical Systems, Inc.). The column effluent is passed via a T-connection to the detection cell or to a waste outlet. This is accomplished by two solenoid valves, which block either the waste or detector outlet. By preventing the chromatographic front from reaching the detector, better detection conditions are achieved. The aqueous mobile phase (0.4 ml/min) for the acid system contains citric acid 14 mM, sodium citrate 10 mM, MeOH 15% (v/v) and EDTA 0.1 mM. Detection potentials relative to Ag/AgCl reference are 0.45 and 0.60V. The aqueous ion pairing mobile phase (0.5 ml/min) for the amine system contains citric acid 5 mM, sodium citrate 10 mM, MeOH 9% (v/v), MeCN 10.5% v/v), decane sulfonic acid 0.45 mM, and EDTA 0.1 mM. Detection potentials relative to Ag/AgCl reference are 0.45 and 0.65V.
ED50 values for the increase of DOPAC in striatum are calculated by curve fitting.

drug-naive rats = test: Locomotor activity in drug-naive rats (in vivo behaviour); design: species or system rat; conditions: recorded for 60 minutes, ± SEM
Text: Photobeam sensors are spaced 2.5 cm apart.

Row | SMILES | ED50 [1] [µmol/kg] | Locomotor activity (drug-naive rats; 3.7 μmol/kg) [counts/60 min] | Locomotor activity (drug-naive rats; 11 μmol/kg) [counts/60 min] | Locomotor activity (drug-naive rats; 33 μmol/kg) [counts/60 min] | ED50 DOPAC* [1] [µmol/kg]
1 | CCNC[C@H]1COc2c(F)cc(S(C)(=O)=O)cc2O1 [Example 19, N-{[(2S)-5-FLUORO-7-(METHYLSULFONYL)-2,3-DIHYDRO-1,4-BENZODIOXIN-2-YL]METHYL}ETHANAMINE] | < 3.7 | 6123 ± 710 | 3191 ± 387 | 1936 ± 370 | –
2 | CCCNC[C@H]1COc2c(F)cc(S(C)(=O)=O)cc2O1 [Example 21, N-{[(2S)-5-FLUORO-7-(METHYLSULFONYL)-2,3-DIHYDRO-1,4-BENZODIOXIN-2-YL]METHYL}PROPAN-1-AMINE] | 6.8 | 12080 ± 1292 | 8930 ± 631 | 4430 ± 775 | –
3 | CCCNCC1CCc2ccc(S(C)(=O)=O)cc2O1 (stereo not drawn) [Example 23, N-{[7-(METHYLSULFONYL)-3,4-DIHYDRO-2H-CHROMEN-2-YL]METHYL}-N—PROPAN-1-AMINE] | – | 9551 ± 1284 | 9722 ± 1247 | 7700 ± 1039 | 14
